According to patent US4195101A, “2',6'-Dihydroxy-9-(2,5-dihydroxyphenyl)octylphenone and its use as an anti-oxidant” (The Lion Dentifrice Co. Ltd., priority 1977, dated 1980):

Assays:
[1] = Test II: oxygen absorption in corn salad oil, Warburg's manometer; details: 0.02% by weight in corn salad oil, 60° C.
Procedure: (§1) The above-obtained compound was tested for its anti-oxidative effects in terms of peroxide value by the active oxygen method (AOM) and also in terms of oxygen absorption. […] Each of the tests I and II are described below together with the results thereof.
The compound of the present invention was determined for the rate of oxygen absorption in a corn salad oil to which 0.02% by weight of the compound had been added. For the purpose, 2 grams of the corn salad oil sample was taken in the receptacle of Warburg's manometer with thermostat at 60°±0.1° C., which was shaken with 110 vibrations per minute in a vibration amplitude of 60 mm. The rate of oxygen absorption was determined by reading the manometer according to the procedure set forth in "Jikken Kagaku Koza" (Lectures in Experimental Chemistry), vol. 24, p. 85, 1958, Maruzen Publishing, Japan. In this testing, the receptacle was totally wrapped with an aluminum foil to prevent the photooxidation of the oil, and mercury was used as the manometer fluid in place of Brodie's solution in order to minimize any possible influence caused by fluctuations in the atmospheric pressure.
Further, in comparison, a similar test was conducted using the same corn salad oil with addition of 0.02% by weight of BHA or without addition of any anti-oxidant.

mouse = details: comparison value for BHA; cited from earlier work
[2] = Test I: peroxide value of refined lard by the active oxygen method (AOM); details: 0.02% by weight in lard, 97.5° C.
Procedure: as §1
Varied amounts of the compound were admixed with and uniformly dissolved in portions of refined lard each weighing 20 g to prepare test samples. Each test sample was kept in an oil bath of thermostat at 97.5°±0.5° C., while air was forcedly blown into the lard at a rate of […].
The thus treated samples of the lard were analyzed for the peroxide value (POV for brevity) periodically or at certain intervals, in accordance with the modified Lea's method as described in "Yukagaku" (Journal of Japan Oil Chemist Society), vol. 19(15), p. 340, 1970.
In comparison, similar experiments were undertaken for the samples of the same lard with addition of BHA instead of the compound of the present invention or without addition of any anti-oxidant.

COc1ccc(O)c(C(C)(C)C)c1 [BHA, butylhydroxyanisole, reference compound]
Oxygen absorption ([1]; 85 hours): 57.6 μ1/g | Oxygen absorption ([1]; 140 hours): 116.2 μ1/g | Oxygen absorption ([1]; 166 hours): 174.8 μ1/g | Oxygen absorption ([1]; 199 hours): 219.0 μ1/g | Oxygen absorption ([1]; 263 hours): 478.9 μ1/g | Oxygen absorption ([1]; 288 hours): 697.8 μ1/g | Oxygen absorption ([1]; 320 hours): 922.9 μ1/g | Oxygen absorption ([1]; 343 hours): 1124.2 μ1/g | LD50 value (mouse): 1,100 mg/kg | Peroxide value ([2]; 8 hours): 2.8 meq./kg | Peroxide value ([2]; 16 hours): 5.1 meq./kg | Peroxide value ([2]; 24 hours): 7.9 meq./kg | Peroxide value ([2]; 32 hours): 13.8 meq./kg | Peroxide value ([2]; 40 hours): 28.9 meq./kg | Peroxide value ([2]; 48 hours): 33.1 meq./kg | Peroxide value ([2]; 56 hours): 43.1 meq./kg | Peroxide value ([2]; 64 hours): 97.3 meq./kg | Peroxide value ([2]; 72 hours): 296.7 meq./kg
